Test results taken from patent publication US20160376237A1, “NOVEL PYRIDINE DERIVATIVES” (Hoffmann-La Roche Inc., priority 2014, published 2016).
Where two headings read alike, the source gives them in different places.

Target: T1, human CB2 receptors (Homo sapiens, UniProt P34972)
T1 construct: expressed in transfected cells; host or cells: CHO cells
Experiment: cAMP assay
Format: cell-based
Procedure: CHO cells expressing human CB1 or CB2 receptors are seeded 17-24 hours prior to the experiment 50.000 cells per well in a black 96 well plate with flat clear bottom (Corning Costar #3904) in DMEM (Invitrogen No. 31331), 1×HT supplement, with 10% fetal calf serum and incubated at 5% CO2 and 37° C. in a humidified incubator. The growth medium was exchanged with Krebs Ringer Bicarbonate buffer with 1 mM IBMX and incubated at 30° C. for 30 min. Compounds were added to a final assay volume of 100 μl and incubated for 30 min at 30° C. Using the cAMP-Nano-TRF detection kit the assay (Roche Diagnostics) was stopped by the addition of 50 μl lysis reagent (Tris, NaCl, 1.5% Triton X100, 2.5% NP40, 10% NaN3) and 50 μl detection solutions ([…] mAb Alexa700-cAMP 1:[…] Ruthenium-2-AHA-cAMP) and shaken for 2 h at room temperature. The time-resolved energy transfer is measured by a TRF reader (Evotec Technologies GmbH), equipped with a ND:YAG laser as excitation source. The plate is measured twice with the excitation at 355 nm and at the emission with a delay of 100 ns and a gate of 100 ns, total exposure time 10 s at 730 (bandwidth 30 nm) or 645 nm (bandwidth 75 nm), respectively. The FRET signal is calculated as follows: FRET=T730-Alexa730-P(T645-B645) with P=Ru730-B730/Ru645-B645, where T730 is the test well measured at 730 nM, T645 is the test well measured at 645 nm, B730 and B645 are the buffer controls at 730 nm and 645 nm, respectively. cAMP content is determined from the function of a standard curve spanning from […] to 0.13 nM cAMP.
EC50 values were determined using Activity Base analysis (ID Business Solution, Limited).

T1 sequence (P34972 whole entry): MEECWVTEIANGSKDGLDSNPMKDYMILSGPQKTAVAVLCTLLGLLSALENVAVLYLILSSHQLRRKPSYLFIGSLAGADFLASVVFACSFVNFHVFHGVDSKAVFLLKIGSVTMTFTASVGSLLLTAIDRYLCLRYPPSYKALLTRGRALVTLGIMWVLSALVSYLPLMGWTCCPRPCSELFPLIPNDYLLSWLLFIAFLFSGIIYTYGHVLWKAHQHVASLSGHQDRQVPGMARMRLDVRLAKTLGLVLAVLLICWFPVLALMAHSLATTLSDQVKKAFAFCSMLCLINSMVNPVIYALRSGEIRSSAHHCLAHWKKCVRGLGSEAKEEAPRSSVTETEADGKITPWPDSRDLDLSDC

## CCOC(=O)C(CC)(CC)NC(=O)c1ccc(N2CC(OC)C2)c(OCC2CC2)n1 [Example 20, Ethyl 2-[[6-(cyclopropylmethoxy)-5-(3-methoxyazetidin-1-yl)pyridine-2-carbonyl]amino]-2-ethylbutanoate]
  EC50: 6.5 nM

## CSCC[C@H](NC(=O)c1ccc(OCC2CC2)c(Cl)n1)C(N)=O [Example 16, N-[(2S)-1-Amino-4-methylsulfanyl-1-oxobutan-2-yl]-6-chloro-5-(cyclopropylmethoxy)pyridine-2-carboxamide]
  EC50: 973 nM

## COC(=O)C(C)(C)NC(=O)c1ccc(-c2ccc(Cl)cc2)c(SC)n1 [Example 1, Methyl 2-[[5-(4-chlorophenyl)-6-methylsulfanylpyridine-2-carbonyl]amino]-2-methylpropanoate]
  EC50: 344 nM

## CCC(CC)(NC(=O)c1ccc(N2CC(OC)C2)c(OCC2CC2)n1)C(=O)N1CC(F)C1 [Example 26, 6-(Cyclopropylmethoxy)-N-[3-(3-fluoroazetidine-1-carbonyl)pentan-3-yl]-5-(3-methoxyazetidin-1-yl)pyridine-2-carboxamide]
  EC50: 4.58 nM

## NC(=O)CC1(NC(=O)c2ccc(N3CCC4(C3)CC4(F)F)c(OCC3CC3)n2)COC1 (centres unmarked) [Example 32, N-[3-(2-Amino-2-oxoethyl)oxetan-3-yl]-6-(cyclopropylmethoxy)-5-(2,2-difluoro-5-azaspiro[2.4]heptan-5-yl)pyridine-2-carboxamide]
  EC50: 60.2 nM

## CCC(CC)(NC(=O)c1ccc(N2CC(F)(C3CC3)C2)c(OCC2CC2)n1)C(=O)NCCCF [Example 41, 5-(3-Cyclopropyl-3-fluoroazetidin-1-yl)-6-(cyclopropylmethoxy)-N-[3-(3-fluoropropylcarbamoyl)pentan-3-yl]pyridine-2-carboxamide]
  EC50: 669 nM

## COC(=O)C(C)(C)NC(=O)c1ccc(-c2ccc(Cl)cc2)c(OCC2CC2)n1 [Example 2, Methyl 2-[[5-(4-chlorophenyl)-6-(cyclopropylmethoxy)pyridine-2-carbonyl]amino]-2-methylpropanoate]
  EC50: 48.2 nM

## Cc1nc(C(C)(C)NC(=O)c2ccc(-c3ccc(Cl)cc3)c(OCC3CC3)n2)no1 [Example 4, 5-(4-Chlorophenyl)-6-(cyclopropylmethoxy)-N-[2-(5-methyl-1,2,4-oxadiazol-3-yl)propan-2-yl]pyridine-2-carboxamide]
  EC50: 232 nM

## CC(C)(NC(=O)c1ccc(-c2ccc(Cl)cc2)c(OCC2CC2)n1)c1ncco1 [Example 3, 5-(4-Chlorophenyl)-6-(cyclopropylmethoxy)-N-[2-(1,3-oxazol-2-yl)propan-2-yl]pyridine-2-carboxamide]
  EC50: 144 nM

## CCC(CC)(NC(=O)c1ccc(OCC2CC2)c(-c2cccc(Cl)c2)n1)C(=O)NC [Example 7, 6-(3-Chlorophenyl)-5-(cyclopropylmethoxy)-N-[3-(methylcarbamoyl)pentan-3-yl]pyridine-2-carboxamide]
  EC50: 51.3 nM

## NC(=O)[C@@H]1CC(F)(F)CN1C(=O)c1ccc(N2CCC(O)(C(F)(F)F)C2)c(OCC2CC2)n1 (stereo partly drawn) [Example 28, (2S)-1-[6-(Cyclopropylmethoxy)-5-[3-hydroxy-3-(trifluoromethyl)pyrrolidin-1-yl]pyridine-2-carbonyl]-4,4-difluoropyrrolidine-2-carboxamide]
  EC50: 1680 nM

## Cc1nc([C@H](CC2CC2)NC(=O)c2ccc(OCC3CC3)c(Cl)n2)no1 [Example 18, 6-Chloro-5-(cyclopropylmethoxy)-N-[(1S)-2-cyclopropyl-1-(5-methyl-1,2,4-oxadiazol-3-yl)ethyl]pyridine-2-carboxamide]
  EC50: 646 nM

## CC(C)C[C@H](NC(=O)c1ccc(N2CCC(O)(C(F)(F)F)C2)c(OCC2CC2)n1)C(N)=O (stereo partly drawn) [Example 29, N-[(2S)-1-Amino-4-methyl-1-oxopentan-2-yl]-6-(cyclopropylmethoxy)-5-[3-hydroxy-3-(trifluoromethyl)pyrrolidin-1-yl]pyridine-2-carboxamide]
  EC50: 1890 nM

## Cc1nc(C(C)(C)NC(=O)c2ccc(OCC3CC3)c(-c3cccc(Cl)c3)n2)no1 [Example 9, 6-(3-Chlorophenyl)-5-(cyclopropylmethoxy)-N-[2-(5-methyl-1,2,4-oxadiazol-3-yl)propan-2-yl]pyridine-2-carboxamide]
  EC50: 42.4 nM

## CC(C)C[C@H](NC(=O)c1ccc(N2CCC3(C2)CC3(F)F)c(OCC2CC2)n1)C(N)=O (stereo partly drawn) [Example 30, N-[(2S)-1-Amino-4-methyl-1-oxopentan-2-yl]-6-(cyclopropylmethoxy)-5-(2,2-difluoro-5-azaspiro[2.4]heptan-5-yl)pyridine-2-carboxamide]
  EC50: 38.1 nM

## CCC(CC)(NC(=O)c1ccc(N2CC(OC)C2)c(OCC2CC2)n1)C(=O)NC [Example 23, 6-(Cyclopropylmethoxy)-5-(3-methoxyazetidin-1-yl)-N-[3-(methylcarbamoyl)pentan-3-yl]pyridine-2-carboxamide]
CHO cells expressing human CB2 receptors, read-out: cAMP assay human CB2 EC50
  EC50: 47 nM

## CCC(CC)(NC(=O)c1ccc(-c2ccccc2)c(OCC2CC2)n1)C(=O)NC [Example 6, 6-(Cyclopropylmethoxy)-N-[3-(methylcarbamoyl)pentan-3-yl]-5-phenylpyridine-2-carboxamide]
  EC50: 831 nM
